In experiment [1] the test system is Mouse melanocytes (Mel-Ab cells). The experiment is described as follows: Melanin production inhibiting effect using mouse melanocytes. It is filed as cell-based. To be noted: 10 ppm, 3 consecutive days, absorbance at 400 nm. Here is the method: Mouse melanocytes (Mel-Ab cells) derived from C57BL/6 mouse (Dooley, T. P. et al, Skin Pharmacol., 7, pp. 188-200) were cultured under the condition of 37° C. and 5% CO2 in DMEM containing 10% FBS, 100 nM 2-O-tetradecanoyphorbol-13-acetate and 1 nM cholera toxin. The cultured Mel-Ab cells were detached with 0.25% trypsin-EDTA and cultured in a 24-well plate, with 10^5 cells/well. From day 2, hydroquinone or the concentrated makgeolli of Example 1 (10 ppm each) was added for 3 consecutive days as test sample. Hydroquinone was used as positive control. Subsequently, after removing the medium and washing with PBS, the cells were suspended in 1 N sodium hydroxide and absorbance was measured at 400 nm. Based on the measurement result, melanin production inhibiting effect was calculated according to Equation 1.
Melanin production inhibiting effect (%)=100−(Absorbance of test sample/Absorbance of control×100) Equation 1

The subject of another experiment is human skin. The experiment is described as follows: Whitening effect for human skin (UVB-induced tanning). It is filed as in vivo. Conditions: 1% topical on UVB-tanned upper arm, 10 weeks, 12 healthy men, colorimeter. As to the method: The whitening effect of the concentrated makgeolli of Example 1 for human skin was tested as follows.
12 healthy men were used as test subjects. An opaque tape with a hole of 1.5 cm diameter was attached on the upper arm of the test subject and UVB of about 1.5-2 times the minimal erythemal dose was irradiated to induce tanning.
After the UV radiation, 1% concentrated makgeolli of Example 1 (in 7:3 1,3-butylene glycol:ethanol solvent), 1% hydroquinone or 1% solvent (vehicle, negative control) was applied. […] The skin color was measured every week using the colorimeter CR2002 (Minolta, Japan).
The difference in skin color (ΔL*) at the initiation of application and after the completion of test was calculated according to Equation 2. Whitening effect was determined from the ΔL* of the sample-applied portion and the control portion. A ΔL* value of about 2 can be evaluated as distinct whitening effect and one of about 1.5 can be evaluated as positive whitening effect.
ΔL*=L*after the completion of test−L*at the initiation of application Equation 2

A short description of experiment [2]: Antioxidant effect (DPPH test). The format is biochemical. Conditions: 100 μM DPPH, 37° C., 30 minutes, absorbance at 540 nm. As to the method:
The antioxidant effect was determined as the concentration at which absorbance is decreased to 50% of control (IC50). 100 μM DPPH solution (in ethanol, 190 μL) was mixed with the concentrated makgeolli prepared in Example 1 or control (10 μL each). The resulting mixture was kept at 37° C. for 30 minutes and absorbance was measured at 540 nm. Trolox, which is widely used as synthetic antioxidant, was used as the control.
In general terms: The DPPH test is a chemical assay of radical scavenging.

In experiment [3] the test system is Human keratinocyte HaCaT cell line. Briefly: ROS production inhibiting effect using fluorescent substances (DCFH-DA, UVB). It is filed as cell-based. To be noted: light or radiation study, HaCaT cells, UVB 30 mJ/cm^2, DCF fluorescence, read-out: ROS production inhibiting effect (% of control). Here is the method:
Human keratinocyte HaCaT cell line was used. The cells were seeded on a 96-well black plate for fluorescence measurement, with 2.0×10^4 cells per well, cultured under the condition of 37° C. and 5% CO2 for 1 day using Dulbecco's modified Eagle's medium (DMEM, FBS 10%) containing penicillin/streptomycin, and then treated with the test sample. The cells were cultured under the condition of 37°C. and 5% CO2 for 1 day using serum (FBS)-free DMEM containing penicillin/streptomycin treated with the test sample as described in Table 2. After culturing for 24 hours, after washing with HEPES-buffered control salt solution (HCSS) to remove the remaining medium and adding 20 μM 2′,7′-dichlorodihydro-fluorescein diacetate (DCFH-DA, Molecular Probes, Inc., 100 μL), the cells were cultured under the condition of 37° C. and 5% CO2 for 20 minutes and then washed with HCSS. Then, after adding HCSS (100 μL) treated with the samples of different concentrations, the fluorescence intensity of the ROS, oxidized dichlorofluorescein (DCF), was measured using a fluorescence plate reader (Ex=485 nm, Em=530 nm). Then, after immediately and 3 hours after irradiation of UVB (30 mJ/cm^2), fluorescence intensity was measured using the fluorescence plate reader (Ex=485 nm, Em=530 nm). Trolox was used as control.

For the compound `Oc1ccc(O)cc1` [Hydroquinone], the “Melanin production inhibiting effect (%)” value in experiment [1] came out at 41.1%. Also, the “Change in skin color (ΔL*)” value in the experiment on human skin is given as 1.90 ± 0.11.

Consider `Cc1c(C)c2c(c(C)c1O)CCC(C)(C(=O)O)O2` (stereo not shown) [Trolox], for which the “IC50 (concentration at which absorbance is decreased to 50% of control)” value in experiment [2] turned out to be 8.64 ppm. Besides, the activity at 1 ppm in experiment [3] (1 ppm) was 76.9%. For the same compound, the activity at 10 ppm in experiment [3] (10 ppm) was found to be 74.6%. Besides, the activity at 25 ppm in experiment [3] (25 ppm) is 73.3%. For the same compound, the activity at 50 ppm in experiment [3] (50 ppm) turned out to be 58.5%.

Values taken from US20120134946A1, “COMPOSITION HAVING ANTIOXIDANT AND WHITENING EFFECTS CONTAINING A CONCENTRATE OF KOREAN RICE WINE” (AMOREPACIFIC CORPORATION, priority 2009, published 2012).
